Assay results as given in US20230365537A1, “POLO LIKE KINASE 4 INHIBITORS” (ORIC Pharmaceuticals, Inc., priority 2021, published 2023).
pIC50: −log10 of the molar value.

Key:
human recombinant PLK4 = human recombinant PLK4 (Homo sapiens (Human), UniProt O00444); assay: PLK4 Biochemical Assay (ADP-Glo); settings: 0.5 nM PLK4, 8.0 µM ATP, 4.7 µM MBP, 6 hours at RT
Method in brief: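 Luminescent ADP-Glo detection quantified ADP production, with ATP depletion for 40 min and detection for 30 min at room temperature. Compound and PLK4 (1.0 nM stock addition) were preincubated 15 min in HEPES pH 7.5 buffer containing MgCl2, EGTA, DTT, Brij-35 and BSA. IC50 values were obtained by four-parameter nonlinear regression.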

[1] = target: human recombinant Aurora A (Homo sapiens (Human), UniProt O14965); assay: Aurora A Kinase Biochemical Assay (ADP-Glo); settings: ratio of Aurora A IC50 to PLK4 IC50 (selectivity)
Chain of human recombinant Aurora A (O14965 whole entry): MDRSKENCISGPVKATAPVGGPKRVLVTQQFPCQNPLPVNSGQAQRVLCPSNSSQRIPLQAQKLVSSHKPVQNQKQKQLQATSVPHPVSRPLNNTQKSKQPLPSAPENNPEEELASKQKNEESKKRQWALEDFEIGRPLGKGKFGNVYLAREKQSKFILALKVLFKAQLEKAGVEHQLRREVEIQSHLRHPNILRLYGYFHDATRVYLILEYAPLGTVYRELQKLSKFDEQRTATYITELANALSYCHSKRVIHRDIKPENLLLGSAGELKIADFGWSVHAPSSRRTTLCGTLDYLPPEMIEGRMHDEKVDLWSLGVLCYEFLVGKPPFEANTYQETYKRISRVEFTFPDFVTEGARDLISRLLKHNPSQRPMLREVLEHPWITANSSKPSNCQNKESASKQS

CHP-134 cells = assay: CHP134 CellTiter-Glo (CTG) Assay; type: cell-based; settings: Homo sapiens, CHP-134, 120 h, 5 days, viable cells by CellTiter-Glo
Method in brief: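 Nine-point 1:3 dilution series, diluted into growth media, added in quadruplicate to CHP-134 cells plated 16 h earlier at 200 cells/well.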

[2] = target: human recombinant Aurora B (Homo sapiens (Human), UniProt Q96GD4); assay: Aurora B Kinase Biochemical Assay (ADP-Glo); settings: ratio of Aurora B IC50 to PLK4 IC50 (selectivity)
Chain of human recombinant Aurora B (Q96GD4 whole entry): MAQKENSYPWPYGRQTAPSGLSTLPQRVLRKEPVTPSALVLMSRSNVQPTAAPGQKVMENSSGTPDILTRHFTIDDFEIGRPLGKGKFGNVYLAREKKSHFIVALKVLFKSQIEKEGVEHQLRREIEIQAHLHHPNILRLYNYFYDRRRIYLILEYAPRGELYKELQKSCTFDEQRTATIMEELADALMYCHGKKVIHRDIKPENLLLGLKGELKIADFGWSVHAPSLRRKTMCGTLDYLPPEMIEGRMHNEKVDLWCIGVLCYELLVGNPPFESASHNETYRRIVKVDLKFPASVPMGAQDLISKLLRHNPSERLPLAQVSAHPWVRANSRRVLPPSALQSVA
Method in brief: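 IC50 derived by four-parameter nonlinear fit of ADP-Glo luminescence (ADP produced). Compound was preincubated 15 min at RT with 20 nM recombinant human Aurora B, in 50 mM HEPES pH 7.5, 10 mM MgCl2, 1 mM EGTA, 1 mM DTT, 0.01% Brij-35/BSA.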

Chain of human recombinant PLK4 (O00444 whole entry): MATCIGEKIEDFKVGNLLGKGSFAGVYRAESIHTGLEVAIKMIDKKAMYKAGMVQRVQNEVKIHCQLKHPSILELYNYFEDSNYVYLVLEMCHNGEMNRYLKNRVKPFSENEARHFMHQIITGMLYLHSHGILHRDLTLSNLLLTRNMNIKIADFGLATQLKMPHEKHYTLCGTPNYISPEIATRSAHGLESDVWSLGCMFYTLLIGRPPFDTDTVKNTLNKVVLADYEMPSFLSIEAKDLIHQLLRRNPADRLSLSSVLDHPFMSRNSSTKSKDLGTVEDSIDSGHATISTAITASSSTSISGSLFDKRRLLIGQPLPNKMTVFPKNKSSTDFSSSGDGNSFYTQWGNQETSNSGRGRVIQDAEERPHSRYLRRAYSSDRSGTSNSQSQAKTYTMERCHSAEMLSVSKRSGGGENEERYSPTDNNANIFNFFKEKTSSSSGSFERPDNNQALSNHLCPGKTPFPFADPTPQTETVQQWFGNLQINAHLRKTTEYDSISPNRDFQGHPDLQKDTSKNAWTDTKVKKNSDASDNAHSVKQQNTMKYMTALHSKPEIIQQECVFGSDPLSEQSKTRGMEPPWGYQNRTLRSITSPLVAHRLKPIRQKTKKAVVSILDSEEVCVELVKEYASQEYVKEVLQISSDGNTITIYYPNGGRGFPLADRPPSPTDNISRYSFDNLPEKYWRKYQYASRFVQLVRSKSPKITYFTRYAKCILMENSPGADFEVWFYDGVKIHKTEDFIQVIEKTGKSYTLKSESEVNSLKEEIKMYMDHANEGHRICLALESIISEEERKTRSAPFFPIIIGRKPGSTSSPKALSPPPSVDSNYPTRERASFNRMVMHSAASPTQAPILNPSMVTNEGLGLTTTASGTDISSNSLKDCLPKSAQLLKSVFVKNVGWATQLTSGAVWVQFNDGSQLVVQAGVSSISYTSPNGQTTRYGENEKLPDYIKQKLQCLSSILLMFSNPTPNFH

| Structure (SMILES) | pIC50 (human recombinant PLK4) | [Aurora A IC50 (nM)]/[PLK4 IC50 (nM)] [1] | [Aurora B IC50 (nM)]/[PLK4 IC50 (nM)] [2] | pIC50 (CHP-134 cells) |
| --- | --- | --- | --- | --- |
| COc1ccc2c(c1)[C@]1(C[C@H]1c1ccc3c(Nc4cc(S(=O)(=O)C(C)C)ccc4OC)n[nH]c3c1)C(=O)N2 [Example 178, (1R,2S)-5′-methoxy-2-{3-[2-methoxy-5-(propane-2-sulfonyl)anilino]-1H-indazol-6-yl}spiro[cyclopropane-1,3′-indol]-2′(1′H)-one] | 8.48 | 15179.1135 | 15179.1135 | 6.20 |
| COc1ccc2c(c1)[C@]1(C[C@H]1c1ccc3c(Nc4cc(S(=O)(=O)N(C)C)ccc4OC)n[nH]c3c1)C(=O)N2 [Example 179, 4-methoxy-3-({6-[(1R,2S)-5′-methoxy-2′-oxo-1′,2′-dihydrospiro[cyclopropane-1,3′-indol]-2-yl]-1H-indazol-3-yl}amino)-N,N-dimethylbenzene-1-sulfonamide] | 8.42 | 13119.9160 | 5384.4135 | 6.02 |
| COc1ccc2c(c1)[C@]1(C[C@H]1c1ccc3c(Nc4cc(C(=O)N5CCOCC5)ccc4OC)n[nH]c3c1)C(=O)N2 [Example 180, (1R,2S)-5′-methoxy-2-{3-[2-methoxy-5-(morpholine-4-carbonyl)anilino]-1H-indazol-6-yl}spiro[cyclopropane-1,3′-indol]-2′(1′H)-one] | 8.54 | 5455.5011 | 1996.8465 | 6.13 |
| COc1ccc2c(c1)[C@]1(C[C@H]1c1ccc3c(Nc4ccc(C(=O)N5CCOCC5)nc4OC)n[nH]c3c1)C(=O)N2 [Example 183, (1R,2S)-5′-methoxy-2-(3-{[2-methoxy-6-(morpholine-4-carbonyl)pyridin-3-yl]amino}-1H-indazol-6-yl)spiro(cyclopropane-1,3′-indol]-2′(1′H)-one] | 8.90 | 534.2169 | 322.5703 | 6.90 |
| COc1ccc2c(c1)[C@]1(C[C@H]1c1ccc3c(Nc4ccc(C(=O)N5CC(F)(F)C5)nc4OC)n[nH]c3c1)C(=O)N2 [Example 184, (1R,2S)-2-(3-{[6-(3,3-difluoroazetidine-1-carbonyl)-2-methoxypyridin-3-yl]amino}-1H-indazol-6-yl)-5′-methoxyspiro[cyclopropane-1,3′-indol]-2′(1′H)-one] | 8.16 | 7144.8985 | 7144.8985 | 6.05 |
| COc1ccc2c(c1)[C@]1(C[C@H]1c1ccc3c(Nc4ccc(C(=O)N5CCC(F)(F)CC5)nc4OC)n[nH]c3c1)C(=O)N2 [Example 185, (1R,2S)-2-(3-{[6-(4,4-difluoropiperidine-1-carbonyl)-2-methoxypyridin-3-yl]amino}-1H-indazol-6-yl)-5′-methoxyspiro[cyclopropane-1,3′-indol]-2′(1′H)-one] | 8.71 | 3240.7975 | 180.1636 | 6.87 |
| COc1ccc2c(c1)[C@]1(C[C@H]1c1cc(F)c3c(Nc4nc(SC)ncc4OC)n[nH]c3c1)C(=O)N2 [Example 186, (1R,2S)-2-(4-fluoro-3-{[5-methoxy-2-(methylsulfanyl)pyrimidin-4-yl]amino}-1H-indazol-6-yl)-5′-methoxyspiro[cyclopropane-1,3′-indol]-2′(1′H)-one] | 8.75 | 641.9337 | 232.5464 | 6.27 |
| COc1ccc2c(c1)[C@]1(C[C@H]1c1ccc3c(Nc4nc(OC)ncc4C)n[nH]c3c1)C(=O)N2 [Example 187, (1R,2S)-5′-methoxy-2-{3-[(2-methoxy-5-methylpyrimidin-4-yl)amino]-1H-indazol-6-yl}spiro[cyclopropane-1,3′-indol]-2′(1′H)-one] | 8.21 | 109.5814 | 112.2793 | 6.25 |
| COc1ccc2c(c1)[C@]1(C[C@H]1c1ccc3c(Nc4ccc(C(=O)N5CC6(COC6)C5)nc4OC)n[nH]c3c1)C(=O)N2 [Example 188, (1R,2S)-5′-methoxy-2-(3-{[2-methoxy-6-(2-oxa-6-azaspiro[3.3]heptane-6-carbonyl)pyridin-3-yl]amino}-1H-indazol-6-yl)spiro[cyclopropane-1,3′-indol]-2′(1′H)-one] | 8.20 | 7974.4817 | 191.7065 | 6.12 |
| COc1ccc2c(c1)[C@]1(C[C@H]1c1ccc3c(Nc4nc(N5CCC(F)(F)CC5)ncc4OC)n[nH]c3c1)C(=O)N2 [Example 189, (1R,2S)-2-(3-{[2-(4,4-difluornpiperidin-1-yl)-5-methoiypyrimidin-4-yl]amino}-1H-indazol-6-yl)-5′-methoxyspiro[cyclopropane-1,3′-indol]-2′(1′H)-one] | 8.98 | 383.7321 | 514.5455 | 6.95 |

Second part, led by results:

| pIC50 (human recombinant PLK4) | [Aurora A IC50 (nM)]/[PLK4 IC50 (nM)] [1] | [Aurora B IC50 (nM)]/[PLK4 IC50 (nM)] [2] | Structure (SMILES) | pIC50 (CHP-134 cells) |
| --- | --- | --- | --- | --- |
| 8.57 | 129.5378 | 279.1432 | COc1ccc2c(c1)[C@]1(C[C@H]1c1ccc3c(Nc4nc(N5CCS(=O)(=O)CC5)ncc4OC)n[nH]c3c1)C(=O)N2 [Example 190, 4-[5-methoxy-4-({6-[(1R,2S)-5′-methoxy-2′-oxo-1′,2′-dihydrospiro[cyclopropane-1,3′-indol]-2-yl]-1H-indazol-3-yl}amino)pyrimidin-2-yl]-1λ6-thiomorpholine-1,1-dione] | 5.29 |
| 8.64 | 2416.5931 | 84.9956 | CNC(=O)c1ccc(Nc2n[nH]c3cc([C@@H]4C[C@@]45C(=O)Nc4ccc(OC)cc45)ccc23)c(OC)n1 [Example 191, 6-methoxy-5-({6-[(1R,2S)-5′-methoxy-2′-oxo-1′,2′-dihydrospiro[cyclopropane-1,3′-indol]-2-yl]-1H-indazol-3-yl}amino)-N-methylpyridine-2-carboxamide] | 6.31 |
| 8.79 | 2835.2654 | 678.4625 | COc1ccc2c(c1)[C@]1(C[C@H]1c1ccc3c(Nc4nc(N5CC6(COC6)C5)ncc4OC)n[nH]c3c1)C(=O)N2 [Example 192, (1R,2S)-5′-methoxy-2-(3-{[5-methoxy-2-(2-oxa-6-azaspiro[3.3]heptan-6-yl)pyrimidin-4-yl]amino}-1H-indazol-6-yl)spiro[cyclopropane-1,3′-indol]-2′(1′H)-one] | 5.93 |
| 8.95 | 1463.8448 | 138.8889 | COc1ccc2c(c1)[C@]1(C[C@H]1c1ccc3c(Nc4ncc(S(C)(=O)=O)cc4OC)n[nH]c3c1)C(=O)N2 [Example 193, (1R,2S)-2-(3-{[5-(methanesulfonyl)-3-methoxypyridin-2-yl]amino}-1H-indazol-6-yl)-5′-methoxyspiro[cyclopropane-1,3′-indol]-2′(1′H)-one] | 6.41 |
| 9.02 | 805.6995 | 103.7306 | COc1ccc2c(c1)[C@]1(C[C@H]1c1ccc3c(Nc4ccc(C(=O)N(C)C(C)C)nc4OC)n[nH]c3c1)C(=O)N2 [Example 194, 6-methoxy-5-({6-[(1R,2S)-5′-methoxy-2′-oxo-1’,2′-dihydrospiro[cyclopropane-1,3′-indol]-2-yl]-1H-indazol-3-yl}amino)-N-methyl-N-(propan-2-yl)pyridine-2-carboxamide] | 6.90 |
| 8.81 | 3459.6154 | 740.3846 | CCOc1cnc(SC)nc1Nc1n[nH]c2cc([C@@H]3C[C@@]34C(=O)Nc3ccc(OC)cc34)ccc12 [Example 195, (1R,2S)-2-(3-{[5-ethoxy-2-(methylsulfanyl)pyrimidin-4-yl]amino)-1H-indazol-6-yl)-5′-methoxyspiro[cyclopropane-1,3′-indol]-2′(1′H)-one] | 6.80 |
| 8.48 | 732.3689 | 100.8137 | COc1ccc2c(c1)[C@]1(C[C@H]1c1ccc3c(Nc4nc(S(C)(=O)=O)ccc4OC)n[nH]c3c1)C(=O)N2 [Example 196, (1R,2S)-2-(3-{[6-(methanesulfonyl)-3-methoxypyridin-2-yl]amino}-1H-indazol-6-yl)-5′-methoxyspiro[cyclopropane-1,3′-indol]-2′(1′H)-one] | 5.78 |
| 8.97 | 1243.4944 | 73.8197 | COc1ccc2c(c1)[C@]1(C[C@H]1c1ccc3c(Nc4ncc(C(=O)N(C)C)cc4OC)n[nH]c3c1)C(=O)N2 [Example 197, 5-methoxy-6-({6-[(1R,2S)-5′-methoxy-2′-oxo-1′,2′-dihydrospiro[cyclopropane-1,3′-indol]-2-yl]-1H-indazol-3-yl}amino)-N,N-dimethylpyridine-3-carboxamide] | 5.97 |
